# Tested on: NCI-H196 complex spheroid viability
# Assay: Anticancer human tumor NCI-H196 cell line growth inhibition [LSD1];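 also: spheroids exposed to agents for 7 days before readout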;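 as to viability, T/C: 100% = DMSO vehicle control viability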
# Details: for IC50: curve of first compound; for viability, T/C: stronger effect = lower value
# Procedure, shortened: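 Complex spheroids of tumor cells with HUVEC and human MSCs, exposed to iadademstat combined with other agents. Each agent tested in half-log steps from near clinical Cmax (else 10 microM top), DMSO ≤0.25%.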
smiles,measurement,setting,value
CC1(C)CCC(CN2CCN(c3ccc(C(=O)NS(=O)(=O)c4ccc(NCC5CCOCC5)c([N+](=O)[O-])c4)c(Oc4cnc5[nH]ccc5c4)c3)CC2)=C(c2ccc(Cl)cc2)C1 + NC1CCC(NC2CC2c2ccccc2)CC1,IC50,second compound 0.1 µM,5.15 µM
same,IC50,second compound 0.316 µM,5.19 µM
same,IC50,second compound 1 µM,5.88 µM
same,IC50,second compound 3.16 µM,5.6 µM
same,IC50,second compound 10 µM,6.02 µM
same,"viability, T/C","second compound 0.1 µM, first compound 0.0316 µM",98.8%
same,"viability, T/C","second compound 0.1 µM, first compound 0.1 µM",104%
same,"viability, T/C","second compound 0.1 µM, first compound 0.316 µM",96.8%
same,"viability, T/C","second compound 0.1 µM, first compound 1 µM",97.8%
same,"viability, T/C","second compound 0.1 µM, first compound 3.16 µM",76%
same,"viability, T/C","second compound 0.1 µM, first compound 10 µM",14.6%
same,"viability, T/C","second compound 0.316 µM, first compound 0.0316 µM",107%
same,"viability, T/C","second compound 0.316 µM, first compound 0.1 µM",106%
same,"viability, T/C","second compound 0.316 µM, first compound 0.316 µM",98%
same,"viability, T/C","second compound 0.316 µM, first compound 1 µM",98%
same,"viability, T/C","second compound 0.316 µM, first compound 3.16 µM",78.3%
same,"viability, T/C","second compound 0.316 µM, first compound 10 µM",13.2%
same,"viability, T/C","second compound 1 µM, first compound 0.0316 µM",101%
same,"viability, T/C","second compound 1 µM, first compound 0.1 µM",103%
same,"viability, T/C","second compound 1 µM, first compound 0.316 µM",101%
same,"viability, T/C","second compound 1 µM, first compound 1 µM",106%
same,"viability, T/C","second compound 1 µM, first compound 3.16 µM",89.1%
same,"viability, T/C","second compound 1 µM, first compound 10 µM",16.5%
same,"viability, T/C","second compound 3.16 µM, first compound 0.0316 µM",109%
same,"viability, T/C","second compound 3.16 µM, first compound 0.1 µM",104%
same,"viability, T/C","second compound 3.16 µM, first compound 0.316 µM",95.4%
same,"viability, T/C","second compound 3.16 µM, first compound 1 µM",102%
same,"viability, T/C","second compound 3.16 µM, first compound 3.16 µM",82.8%
same,"viability, T/C","second compound 3.16 µM, first compound 10 µM",16.6%
same,"viability, T/C","second compound 10 µM, first compound 0.0316 µM",104%
same,"viability, T/C","second compound 10 µM, first compound 0.1 µM",101%
same,"viability, T/C","second compound 10 µM, first compound 0.316 µM",99.2%
same,"viability, T/C","second compound 10 µM, first compound 1 µM",103%
same,"viability, T/C","second compound 10 µM, first compound 3.16 µM",86.4%
same,"viability, T/C","second compound 10 µM, first compound 10 µM",21%

# — PubChem BioAssay AID1918958 (Molecular Pharmacology Branch, DTP, NCI, 2023)
